Source: ChEMBL document CHEMBL1201862, “PubChem BioAssay data set” (2004)
Each block holds one molecule with its values, some of them ahead of it. The source made the active and inactive calls.

Experiments:
[1] = Fluorescence polarization-based biochemical high throughput dose response assay for activators of the Protein Kinase A-R1A (PKA-R1A) complex. [Related pubchem assays (depositor defined):AID504704, AID504707, AID504799, AID504800]
[2] = Fluorescence polarization-based biochemical high throughput dose response assay for activators of the Protein Kinase A-R2B (PKA-R2B) complex. [Related pubchem assays (depositor defined):AID504700, AID504704, AID504796, AID504797]
[3] = target: Voltage-gated inwardly rectifying potassium channel KCNH2 (Homo sapiens, UniProt Q12809); conditions: Potency;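 note: confirmatory quantitative high-throughput screen measuring inhibition of hERG channel activity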
[4] = viability of PTEN-deleted HCT116 cells – cell-based, HCT116 PTEN knockout, dose response (AID 1047); type: functional;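 note: HCT116 colon tumor cells with PTEN knocked out; cells exposed to compound for 60 hours before readout; potency for loss of cell viability measured by luminescence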
[5] = viability of HCT116 lacking mutant beta-catenin – cell-based, human colon tumor, dose response (AID 1045); type: functional;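 note: HCT116 colon tumor cells with beta catenin knocked out; cells exposed to compound for 60 hours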
[6] = target: T1, Ubiquitin-conjugating enzyme E2 N (Homo sapiens, UniProt P61088); type: functional;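 note: Dose-response confirmation in a TR-FRET assay detecting UBC13-driven polyubiquitin chain formation, inhibition measured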
T1 sequence (P61088 whole entry): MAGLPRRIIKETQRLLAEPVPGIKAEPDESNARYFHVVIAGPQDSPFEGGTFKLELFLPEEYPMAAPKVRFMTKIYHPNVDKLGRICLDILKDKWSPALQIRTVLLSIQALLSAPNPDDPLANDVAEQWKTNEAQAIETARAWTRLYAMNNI

[7] = target: T2, Microphthalmia-associated transcription factor (Homo sapiens, UniProt O75030); test: reducers of TRPM1 reporter luminescence, concentration series – cell-based, SK-MEL-5, cherry-picked, set 3, MITF inhibitor project, dose response (AID 493073); type: functional;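 note: SK-MEL-5 melanoma cells with luciferase driven by the MITF target TRPM1 promoter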
T2 sequence (O75030 whole entry): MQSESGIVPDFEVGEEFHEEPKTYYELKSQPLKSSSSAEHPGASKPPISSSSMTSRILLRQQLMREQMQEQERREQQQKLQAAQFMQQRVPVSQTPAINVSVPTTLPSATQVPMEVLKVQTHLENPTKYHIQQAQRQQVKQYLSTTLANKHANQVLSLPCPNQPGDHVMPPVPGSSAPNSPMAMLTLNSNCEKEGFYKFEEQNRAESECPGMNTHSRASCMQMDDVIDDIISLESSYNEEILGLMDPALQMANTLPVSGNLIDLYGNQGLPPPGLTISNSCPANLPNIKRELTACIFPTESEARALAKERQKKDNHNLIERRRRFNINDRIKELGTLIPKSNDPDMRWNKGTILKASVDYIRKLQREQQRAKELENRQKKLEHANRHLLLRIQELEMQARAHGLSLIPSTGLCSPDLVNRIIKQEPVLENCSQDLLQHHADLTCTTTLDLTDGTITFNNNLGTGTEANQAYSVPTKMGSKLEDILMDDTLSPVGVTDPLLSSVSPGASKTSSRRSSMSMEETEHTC

A-375 = test: MITF: Counter assay: A375 proliferation Measured in Cell-Based System Using Plate Reader - 2084-03_Inhibitor_Dose_DryPowder_Activity. [Related pubchem assays (depositor defined):AID488944]; type: functional; conditions: Homo sapiens
Beta-galactosidase = Beta-galactosidase (Escherichia coli, UniProt Q8VNN2); test: detection-enzyme interference by beta-gal modulators – biochemical, E. coli enzyme, set 3, artefact control for CCR6 antagonist project, dose response (AID 504712); type: functional
[8] = target: T3, Polyadenylate-binding protein 1 (Homo sapiens, UniProt P11940); test: MLLE binding blockers, Cy5 peptide tracer – biochemical, fluorescence polarization, Cy5-PAM2 peptide, secondary, miRNA deadenylation inhibitor project, dose response (AID 602260); type: functional; conditions: read-out: IC50_Mean
[9] = target: T3, Polyadenylate-binding protein 1; test: MLLE domain peptide-binding blockers, IC50 – biochemical, fluorescence polarization, FITC-PAM2 peptide, dose response (AID 602259); type: functional; conditions: read-out: IC50_Mean
HEK293 [10] = test: cells; conditions: Homo sapiens
HEK293 [11] = test: cells; conditions: Homo sapiens; remark: listed apart in the source

T3 sequence (P11940 whole entry, the tested form may be a part): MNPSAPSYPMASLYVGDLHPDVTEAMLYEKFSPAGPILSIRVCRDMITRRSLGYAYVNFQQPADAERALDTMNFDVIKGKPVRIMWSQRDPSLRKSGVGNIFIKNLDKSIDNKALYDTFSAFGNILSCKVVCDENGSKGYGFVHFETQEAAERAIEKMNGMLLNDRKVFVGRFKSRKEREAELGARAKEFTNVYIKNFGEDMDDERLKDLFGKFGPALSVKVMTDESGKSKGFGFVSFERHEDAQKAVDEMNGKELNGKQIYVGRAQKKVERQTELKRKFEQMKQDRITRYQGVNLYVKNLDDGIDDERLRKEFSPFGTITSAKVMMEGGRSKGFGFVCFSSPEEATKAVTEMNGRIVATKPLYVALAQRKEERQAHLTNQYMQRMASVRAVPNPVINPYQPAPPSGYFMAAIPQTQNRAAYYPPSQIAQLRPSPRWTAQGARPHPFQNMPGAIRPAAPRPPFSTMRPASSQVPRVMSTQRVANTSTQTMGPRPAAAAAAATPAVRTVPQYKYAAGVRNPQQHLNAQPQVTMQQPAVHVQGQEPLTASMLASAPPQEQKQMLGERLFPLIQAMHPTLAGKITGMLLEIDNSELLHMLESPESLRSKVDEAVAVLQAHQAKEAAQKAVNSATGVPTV
Beta-galactosidase, sequence (Q8VNN2 whole entry): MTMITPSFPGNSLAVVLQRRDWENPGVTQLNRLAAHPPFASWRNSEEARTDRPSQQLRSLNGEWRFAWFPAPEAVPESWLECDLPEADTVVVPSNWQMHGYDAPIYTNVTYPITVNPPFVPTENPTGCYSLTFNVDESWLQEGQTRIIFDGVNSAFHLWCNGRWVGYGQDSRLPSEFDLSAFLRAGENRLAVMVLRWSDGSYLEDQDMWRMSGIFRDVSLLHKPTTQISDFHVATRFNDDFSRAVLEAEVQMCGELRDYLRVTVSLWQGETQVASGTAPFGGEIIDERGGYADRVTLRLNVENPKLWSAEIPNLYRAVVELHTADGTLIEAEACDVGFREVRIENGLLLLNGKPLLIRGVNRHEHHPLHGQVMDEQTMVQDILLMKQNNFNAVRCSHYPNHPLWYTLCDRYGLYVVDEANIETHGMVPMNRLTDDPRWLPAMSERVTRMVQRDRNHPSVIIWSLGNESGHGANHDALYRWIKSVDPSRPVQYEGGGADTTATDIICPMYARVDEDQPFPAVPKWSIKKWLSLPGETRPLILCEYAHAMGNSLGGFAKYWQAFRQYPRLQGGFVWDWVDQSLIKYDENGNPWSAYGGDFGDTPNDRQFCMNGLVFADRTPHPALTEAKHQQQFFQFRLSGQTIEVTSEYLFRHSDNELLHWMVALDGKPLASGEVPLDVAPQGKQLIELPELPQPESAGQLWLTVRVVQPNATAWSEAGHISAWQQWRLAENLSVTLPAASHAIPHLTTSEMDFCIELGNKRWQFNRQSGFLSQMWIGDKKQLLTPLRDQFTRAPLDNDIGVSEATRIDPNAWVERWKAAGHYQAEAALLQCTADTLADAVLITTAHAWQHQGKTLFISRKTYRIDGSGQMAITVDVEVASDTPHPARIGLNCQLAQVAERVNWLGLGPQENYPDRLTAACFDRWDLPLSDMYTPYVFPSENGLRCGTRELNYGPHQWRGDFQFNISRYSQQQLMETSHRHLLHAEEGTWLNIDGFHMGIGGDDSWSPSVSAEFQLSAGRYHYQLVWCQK
Voltage-gated inwardly rectifying potassium channel KCNH2, sequence (Q12809 whole entry): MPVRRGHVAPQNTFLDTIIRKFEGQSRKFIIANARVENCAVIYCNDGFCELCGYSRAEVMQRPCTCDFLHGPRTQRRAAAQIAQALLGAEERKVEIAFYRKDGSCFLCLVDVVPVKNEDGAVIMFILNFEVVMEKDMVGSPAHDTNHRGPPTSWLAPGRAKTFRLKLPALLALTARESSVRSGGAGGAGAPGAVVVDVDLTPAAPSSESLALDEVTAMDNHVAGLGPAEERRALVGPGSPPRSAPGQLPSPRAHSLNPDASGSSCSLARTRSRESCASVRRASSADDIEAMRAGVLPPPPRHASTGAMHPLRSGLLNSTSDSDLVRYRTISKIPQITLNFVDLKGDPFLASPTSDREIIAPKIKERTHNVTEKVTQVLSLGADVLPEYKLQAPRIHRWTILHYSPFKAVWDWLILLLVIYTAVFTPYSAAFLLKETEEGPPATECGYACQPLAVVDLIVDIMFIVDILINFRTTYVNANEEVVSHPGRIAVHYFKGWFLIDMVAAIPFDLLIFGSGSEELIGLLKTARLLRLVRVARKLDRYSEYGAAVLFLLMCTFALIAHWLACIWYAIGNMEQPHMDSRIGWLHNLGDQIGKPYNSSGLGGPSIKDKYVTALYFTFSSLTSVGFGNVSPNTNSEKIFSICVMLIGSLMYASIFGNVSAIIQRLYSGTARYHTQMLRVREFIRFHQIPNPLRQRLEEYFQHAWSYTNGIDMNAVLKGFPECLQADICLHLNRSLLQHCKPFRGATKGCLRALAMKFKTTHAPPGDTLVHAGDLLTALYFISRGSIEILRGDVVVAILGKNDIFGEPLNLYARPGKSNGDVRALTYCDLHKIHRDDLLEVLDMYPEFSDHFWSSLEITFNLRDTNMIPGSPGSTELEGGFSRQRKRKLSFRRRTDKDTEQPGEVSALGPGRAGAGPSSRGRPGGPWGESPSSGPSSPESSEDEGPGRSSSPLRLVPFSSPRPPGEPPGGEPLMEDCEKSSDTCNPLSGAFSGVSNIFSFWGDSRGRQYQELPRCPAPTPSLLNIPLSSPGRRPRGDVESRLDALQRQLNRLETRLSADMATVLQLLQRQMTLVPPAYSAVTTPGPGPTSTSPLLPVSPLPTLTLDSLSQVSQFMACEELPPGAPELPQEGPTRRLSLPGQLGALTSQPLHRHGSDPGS

EC50 [1]: 12.3 µM (inactive)
EC50 [2]: 11.7 µM (inactive)
SMILES: CCCC(=O)Nc1ncnc2c1ncn2[C@@H]1O[C@@H]2COP(=O)(O)O[C@H]2[C@H]1OC(=O)CCC

SMILES: C/C=C(/C)C(=O)O[C@H]1C(C)=C2[C@H]([C@@H]1OC(=O)CCCCCCC)[C@@](C)(OC(C)=O)C[C@@H](OC(=O)CCC)[C@@]1(O)[C@H]2OC(=O)[C@@]1(C)O
AC50 [3]: 22.4 µM (inconclusive)

SMILES: COc1ccc(-c2nn(-c3ccccc3)cc2/C=N/N=C(N)N)cc1OC
EC50 [4]: 4.55 µM (active)
EC50 [5]: 4.78 µM (active)
IC50 [6]: > 20 µM (inactive)
AC50 [7]: 14.6 µM (active)
AC50 (A-375): 17.4 µM (active)

SMILES: CN(C)CCCN1C(=O)c2cccc3c([N+](=O)[O-])ccc(c23)C1=O
IC50 (Beta-galactosidase): > 66.6 µM (inactive)
IC50 [8]: > 66 µM (inactive)
IC50 [9]: 60.1 µM (inactive)
EC50 (HEK293 [10]): > 59.6 µM (inactive)
EC50 (HEK293 [11]): > 59.6 µM (inactive)
